# Experiments:
# [1] = system: Plasmodium falciparum; assay: Antimalarial activity against chloroquine-resistant Plasmodium falciparum W2; assay type: functional, organism-based
# [2] = system: Plasmodium falciparum; assay: Antimalarial activity against chloroquine-sensitive Plasmodium falciparum D10; assay type: functional, organism-based
# [3] = system: Plasmodium falciparum; assay: Antimalarial activity against chloroquine-sensitive Plasmodium falciparum 3D7; assay type: functional, organism-based
# [4] = system: Plasmodium falciparum; assay: Antimalarial activity against chloroquine-resistant Plasmodium falciparum K1; assay type: functional, organism-based
# [5] = Cytotoxicity against mouse WEHI cell line by MTT assay; assay type: cell-based; conditions: WEHI cells, read-out: ED50 (the source's name)
Structure (SMILES),IC50 [1] [nM],IC50 [2] [nM],IC50 [3] [nM],IC50 [4] [nM],CC50 [5] [nM]
COc1ccc(/C=N/Nc2ccnc3ccc(OC)cc23)cc1,128,99,–,–,–
COc1ccc2nc3cc(Cl)ccc3c(N/N=C/c3ccc(CN4CCCC4)cc3)c2c1,137,97,112,–,–
Clc1ccc2c(N/N=C/c3ccc(CN4CCCC4)cc3)ccnc2c1,58.3,28.8,19.1,16.4,19400
COc1ccc2nccc(N/N=C/c3ccc(N(C)C)cc3)c2c1,104,83,–,–,–
COc1ccc2nc3cc(Cl)ccc3c(N/N=C/c3ncc[nH]3)c2c1,30.8,62.6,1,4.5,5100
CCN(CC)CCCC(C)Nc1ccnc2cc(Cl)ccc12 (stereo not given) [CHLOROQUINE],–,–,–,–,9700
CCN(CC)Cc1ccc(/C=N/Nc2ccnc3ccc(OC)cc23)cc1,79,39.2,11,55.1,–
COc1cccc2c(N/N=C/c3ccccc3)ccnc12,254,519,5700,–,–
COc1ccc(/C=N/Nc2ccnc3cc4c(cc23)OCO4)cc1,163,210,155,467,–
COc1cccc2c(N/N=C/c3ccc(N(C)C)cc3)ccnc12,356,337,–,–,–
COc1ccc2nc3cc(Cl)ccc3c(N/N=C/c3ncc[nH]3)c2n1,26.9,72,283,198,–

# Source: ChEMBL document CHEMBL1137279, “Synthesis of N1-arylidene-N2-quinolyl- and N2-acrydinylhydrazones as potent antimalarial agents active against CQ-resistant P. falciparum strains” (Bioorg Med Chem Lett, 2006)
